Reference: patent publication US10597388B2, “Pyridazinone herbicides” (FMC CORPORATION, priority 2014, dated 2020)

What was measured:
Assay type in all cases: in vivo
[1] = tested on: kochia (Kochia scoparia); assay: Test C greenhouse herbicide test, postemergence; conditions: for Plant response rating, Kochia: Postemergence
Outline: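 Test chemicals were applied postemergence to greenhouse plants at the 1- to 4-leaf stage (2–18 cm tall) growing in peat/vermiculite medium. After 13–15 d, injury was rated visually against untreated controls on a 0–100 scale (0 = no effect, 100 = complete control).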

[2] = tested on: oilseed rape (Brassica napus); assay: Test C greenhouse herbicide test, pre- and postemergence
Outline: (§1)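 Greenhouse pots; pre-em on seeded loam:sand blend, post-em on 2–18 cm plants (1–4 leaf) in sphagnum peat/vermiculite medium. Formulation: non-phytotoxic solvent + surfactant. Read-out: visual % control (0–100) vs controls at 13–15 d.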

[3] = tested on: corn (Zea mays); assay: as above
Outline: as §1

[4] = tested on: soybean (Glycine max); assay: as above
Outline: as §1

[5] = tested on: wheat (winter wheat, Triticum aestivum); assay: as above
Outline: as §1

[6] = tested on: ragweed (common ragweed, Ambrosia elatior); assay: as above
Outline: as §1

[7] = tested on: pigweed (Amaranthus retroflexus); assay: as above
Outline: as §1

[8] = tested on: morningglory (Ipomoea coccinea); assay: as above
Outline: as §1

[9] = tested on: blackgrass (Alopecurus myosuroides); assay: as above
Outline: as §1

[10] = tested on: foxtail, giant (giant foxtail, Setaria faberii); assay: as above
Outline: as §1

[11] = tested on: ryegrass, Italian (Italian ryegrass, Lolium multiflorum); assay: as above
Outline: as §1

[12] = tested on: waterhemp (common waterhemp, Amaranthus rudis); assay: as above
Outline: as §1

[13] = tested on: crabgrass, large (large crabgrass, Digitaria sanguinalis); assay: as above
Outline: as §1

[14] = tested on: lambsquarters (Chenopodium album); assay: as above
Outline: as §1

[15] = tested on: nutsedge, yellow (yellow nutsedge, Cyperus esculentus); assay: as above
Outline: as §1

[16] = tested on: johnsongrass (Sorghum halepense); assay: as above
Outline: as §1

[17] = 125 g ai/ha, scale 0 to 100, 0 is no effect, 100 is complete control
[18] = 250 g ai/ha, scale 0 to 100, 0 no effect, 100 complete control, 13 to 15 d
[19] = postemergence, 62 g ai/ha, scale 0 to 100, 0 no effect, 100 complete control
[20] = Postemergence, 125 g ai/ha, scale 0 to 100, 0 is no effect, 100 is complete control
[21] = Postemergence, 250 g ai/ha, scale 0 to 100, 0 no effect, 100 complete control, 13 to 15 d
[22] = Preemergence, 31 g ai/ha, scale 0 to 100, 0 is no effect, 100 is complete control
[23] = Preemergence, 62 g ai/ha, scale 0 to 100, 0 is no effect, 100 is complete control
[24] = Preemergence, 125 g ai/ha, scale 0 to 100, 0 is no effect, 100 is complete control
[25] = Preemergence, 250 g ai/ha, scale 0 to 100 (0 no effect, 100 complete control)
[26] = Postemergence, 31 g ai/ha, 0 to 100 scale (0 no effect, 100 complete control)
[27] = Postemergence, 31 g ai/ha, scale 0 to 100 (0 no effect, 100 complete control)

Cc1cc(C)c2sc(C)c(-c3c(OC(=O)OCCCl)c(C)nn(C)c3=O)c2c1 [Compound 85]
80: Plant response rating, Ragweed [6, 22] | Blackgrass plant response rating [9, 19] | Plant response rating, Waterhemp [12, 23] | Plant response rating, Crabgrass, Large [13, 22] | Plant response rating, Crabgrass, Large [13, 24] | Nutsedge, Yellow plant response rating [15, 25]
100: Plant response rating, Pigweed [7, 22] | Plant response rating, Pigweed [7, 23] | Plant response rating, Pigweed [7, 24] | Pigweed plant response rating [7, 25] | Plant response rating, Morningglory [8, 20] | Plant response rating, Morningglory [8, 21] | Plant response rating, Foxtail, Giant [10, 24] | Foxtail, Giant plant response rating [10, 25] | Waterhemp plant response rating [12, 25] | Plant response rating, Lambsquarters [14, 20] | Plant response rating, Lambsquarters [14, 21] | Lambsquarters plant response rating [14, 25]
5: Plant response rating, Oilseed Rape [2, 22] | Plant response rating, Corn [3, 21] | Wheat plant response rating [5, 25]
45: Plant response rating, Crabgrass, Large [13, 21]
98: Plant response rating, Ragweed [6, 24] | Ragweed plant response rating [6, 25] | Morningglory plant response rating [8, 25] | Morningglory plant response rating [8, 19] | Plant response rating, Foxtail, Giant [10, 23] | Lambsquarters plant response rating [14, 19]
75: Plant response rating, Nutsedge, Yellow [15, 24]
65: Waterhemp plant response rating [12, 19] | Plant response rating, Johnsongrass [16, 24]
0: Corn plant response rating [3, 26] | Plant response rating, Corn [3, 20] | Plant response rating, Corn [3, 22] | Plant response rating, Corn [3, 24] | Corn plant response rating [3, 19] | Plant response rating, Soybean [4, 20] | Plant response rating, Soybean [4, 22] | Plant response rating, Soybean [4, 23] | Plant response rating, Soybean [4, 24] | Soybean plant response rating [4, 25] | Soybean plant response rating [4, 19] | Plant response rating, Wheat [5, 20] | Plant response rating, Wheat [5, 21] | Plant response rating, Wheat [5, 22] | Plant response rating, Wheat [5, 23] | Plant response rating, Wheat [5, 24] | Wheat plant response rating [5, 19]
15: Plant response rating, Oilseed Rape [2, 21] | Plant response rating, Soybean [4, 21] | Johnsongrass plant response rating [16, 19]
85: Plant response rating, Oilseed Rape [2, 23] | Plant response rating, Ragweed [6, 20] | Ragweed plant response rating [6, 19] | Plant response rating, Pigweed [7, 20] | Pigweed plant response rating [7, 19] | Plant response rating, Morningglory [8, 22] | Plant response rating, Blackgrass [9, 23] | Foxtail, Giant plant response rating [10, 19] | Plant response rating, Ryegrass, Italian [11, 22] | Plant response rating, Ryegrass, Italian [11, 23] | Plant response rating, Waterhemp [12, 20] | Plant response rating, Waterhemp [12, 21] | Plant response rating, Crabgrass, Large [13, 23] | Crabgrass, Large plant response rating [13, 25] | Plant response rating, Lambsquarters [14, 22] | Plant response rating, Nutsedge, Yellow [15, 23] | Nutsedge, Yellow plant response rating [15, 19]
70: Plant response rating, Kochia [1, 18] | Kochia plant response rating [1, 19] | Blackgrass plant response rating [9, 26] | Plant response rating, Nutsedge, Yellow [15, 22]
60: Plant response rating, Kochia [1, 17] | Plant response rating, Waterhemp [12, 22]
10: Plant response rating, Oilseed Rape [2, 20] | Oilseed Rape plant response rating [2, 19] | Plant response rating, Corn [3, 23] | Corn plant response rating [3, 25]
30: Crabgrass, Large plant response rating [13, 19] | Plant response rating, Johnsongrass [16, 23]
40: Plant response rating, Oilseed Rape [2, 24] | Plant response rating, Crabgrass, Large [13, 20] | Plant response rating, Johnsongrass [16, 22] | Johnsongrass plant response rating [16, 25]
25: Plant response rating, Johnsongrass [16, 21]
50: Plant response rating, Blackgrass [9, 22] | Plant response rating, Johnsongrass [16, 20]
95: Plant response rating, Morningglory [8, 24] | Plant response rating, Ryegrass, Italian [11, 21] | Plant response rating, Nutsedge, Yellow [15, 20]
90: Oilseed Rape plant response rating [2, 25] | Plant response rating, Ragweed [6, 21] | Plant response rating, Ragweed [6, 23] | Plant response rating, Pigweed [7, 21] | Plant response rating, Morningglory [8, 23] | Plant response rating, Blackgrass [9, 20] | Plant response rating, Blackgrass [9, 21] | Plant response rating, Blackgrass [9, 24] | Blackgrass plant response rating [9, 25] | Plant response rating, Foxtail, Giant [10, 20] | Plant response rating, Foxtail, Giant [10, 21] | Plant response rating, Foxtail, Giant [10, 22] | Plant response rating, Ryegrass, Italian [11, 20] | Plant response rating, Ryegrass, Italian [11, 24] | Ryegrass, Italian plant response rating [11, 25] | Ryegrass, Italian plant response rating [11, 19] | Plant response rating, Waterhemp [12, 24] | Plant response rating, Lambsquarters [14, 23] | Plant response rating, Lambsquarters [14, 24] | Plant response rating, Nutsedge, Yellow [15, 21]

Cc1nn(C)c(=O)c(-c2cc(F)cc3ccccc23)c1OS(C)(=O)=O [Compound 115]
70: Plant response rating, Kochia ([1]; 31 g ai/ha, scale 0 to 100 (0 no effect, 100 complete control)) | Plant response rating, Pigweed [7, 20] | Plant response rating, Lambsquarters [14, 27]
25: Plant response rating, Crabgrass, Large [13, 21]
55: Plant response rating, Morningglory [8, 27]
30: Plant response rating, Pigweed [7, 27]
40: Plant response rating, Nutsedge, Yellow [15, 27]
60: Plant response rating, Ragweed [6, 27]
10: Plant response rating, Soybean [4, 27] | Blackgrass plant response rating [9, 19] | Plant response rating, Crabgrass, Large [13, 27] | Plant response rating, Johnsongrass [16, 20]
0: Plant response rating, Oilseed Rape [2, 27] | Plant response rating, Oilseed Rape [2, 20] | Plant response rating, Oilseed Rape [2, 21] | Plant response rating, Wheat [5, 27] | Plant response rating, Wheat [5, 20] | Plant response rating, Blackgrass [9, 27]
90: Plant response rating, Kochia [1, 17] | Plant response rating, Kochia [1, 18] | Plant response rating, Pigweed [7, 21] | Plant response rating, Ryegrass, Italian [11, 27] | Plant response rating, Waterhemp [12, 20] | Plant response rating, Waterhemp [12, 21] | Plant response rating, Lambsquarters [14, 20]
100: Plant response rating, Morningglory [8, 21]
95: Plant response rating, Ragweed [6, 20] | Plant response rating, Morningglory [8, 20] | Plant response rating, Ryegrass, Italian [11, 20] | Plant response rating, Ryegrass, Italian [11, 21]
98: Plant response rating, Ragweed [6, 21] | Plant response rating, Lambsquarters [14, 21]
20: Plant response rating, Soybean [4, 20] | Plant response rating, Blackgrass [9, 20] | Plant response rating, Foxtail, Giant [10, 20] | Plant response rating, Crabgrass, Large [13, 20] | Crabgrass, Large plant response rating [13, 19] | Plant response rating, Johnsongrass [16, 21]
5: Plant response rating, Corn [3, 27] | Plant response rating, Corn [3, 20] | Corn plant response rating [3, 19] | Plant response rating, Wheat [5, 21] | Plant response rating, Foxtail, Giant [10, 27] | Plant response rating, Johnsongrass [16, 27]
65: Plant response rating, Soybean [4, 21] | Plant response rating, Waterhemp [12, 27] | Plant response rating, Nutsedge, Yellow [15, 20]
15: Plant response rating, Corn [3, 21]
80: Plant response rating, Nutsedge, Yellow [15, 21]
35: Plant response rating, Blackgrass [9, 21] | Plant response rating, Foxtail, Giant [10, 21]
